In the supplement of paper PMC8837787:

Test system: Saccharomyces cerevisiae ABC16-Green Monster
Assay: growth inhibition at single dose (up to 150 µM), below the 70% cut-off for dose-response; higher = more potent
Settings: 18 h; 30 °C; YPD
Outline: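 Percent growth inhibition is the reported value. Drug-sensitive S. cerevisiae ABC16-Green Monster cultures in log phase (OD600 0.1–0.2), 200 µl per well in 96-well plates, received each library compound once at 150 µM in biological duplicates, with untreated cultures run alongside. Growth was followed by OD600 at 0 h and after 18 h at 30 °C. Dose-response was not done for compounds below 70% in both replicates.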

SMILES	growth inhibition at single dose [%]
Brc1c(-c2ccc3c(c2)OCO3)nc2ncccn12	< 70
COc1ccc(S(=O)(=O)Nc2ccc(CN3CCN(C(=O)c4cccc(C#N)c4)CC3)cc2)cc1	< 70
CC(C)(C)NS(=O)(=O)c1cccc2c(N)cccc12	< 70
CCc1ccc(Nc2cc(C)nc3nc(C)nn23)cc1	< 70
CC(C)(C)c1nc(-c2ccc(N)cc2)no1	< 70
COCC(C)NC(=O)CSc1ncnc2sc(-c3ccccc3)cc12 (stereo unspecified)	< 70
CC1(c2ccccc2)Nc2ccccc2-c2nc3ccccc3n21 (stereo unspecified)	< 70
Cc1cccc2c(=O)n(CC(=O)NCc3ccc(C(=O)N4CCCCC4)cc3)cnc12	< 70
CC(C)(C)n1ncc(C(=O)NCCOc2ccccc2)c1C(F)(F)F	< 70
CC1CS(=O)(=O)CCN1/N=C/c1ccc([N+](=O)[O-])o1 (stereo unspecified)	< 70
CC(=O)c1sc(NC(=O)Nc2ccc(C)cc2C)nc1C	< 70
COc1ccc2nc(C)cc(Nc3ccccc3O)c2c1	< 70
CCCCCn1c(=N)n(CC(O)COc2cccc(C)c2)c2ccccc21 (stereo unspecified)	< 70
Cn1c(=O)c2cc(C(=O)NCCCN3CCCCCC3)sc2c2ccccc21	< 70
CCC(=O)Nc1ccccc1C(=O)Nc1ccccn1	< 70
CC1CC1C(=O)NC1CCN(CC2(c3ccccc3)CCCCC2)CC1 (stereo unspecified)	< 70
CCS(=O)(=O)c1ncc(Cl)c(C(=O)Nc2ccccc2C(F)(F)F)n1	< 70
Cc1cc(Nc2ccc(Cl)cc2)n2nc(C(F)(F)F)nc2n1	< 70
CC(C)(C)n1nc(-c2ccccc2)c2c(N)ncnc21	< 70
COc1ccc(-c2nnc(SC(C)C(=O)NCCC3=CCCCC3)[nH]2)cc1 (stereo unspecified)	< 70
COC(=O)[C@@H](NC(=O)Nc1ccc(-c2nc3ccccc3s2)cc1)C(C)C	< 70
O=C(CSc1nnc(C2CC2)o1)NCCC1=CCCCC1	< 70
N#Cc1nc(-c2ccccc2)oc1S(=O)(=O)c1ccc(Cl)cc1	< 70
COc1ccc(C=C2SC(=N)N(c3ccccc3OC)C2=O)cc1	< 70

SMILES	growth inhibition at single dose [%]
O=C(NCCCc1nc2ccccc2[nH]1)c1[nH]nc2ccccc12	< 70
Cc1noc(C)c1C(=O)OCC(=O)c1cc(C)n(-c2ccccc2F)c1C	< 70
N#Cc1ccc(-c2cnc(N)c(-c3ccc(C(N)=O)cc3)n2)cc1	< 70
Cc1cc(NC(=O)c2ccc(Oc3ccc(Cl)cc3O)o2)no1	< 70
COc1nc2ccc(Br)cc2cc1[C@@H](c1ccccc1)[C@@](O)(CCN(C)C)c1cccc2ccccc12	< 70
CN1CCN(c2ncnc3c2[nH]c2ccc(Cl)cc23)CC1	< 70
Nc1ncnc2c1c(Cc1cccc3ccccc13)nn2CC1CCNCC1	< 70
CC(Oc1ccc(Cl)cc1)C(=O)Nc1sccc1C(N)=O (stereo unspecified)	< 70
CC1Cc2cc(C3=NNC(=NC4CC4)SC3)ccc2N1S(C)(=O)=O (stereo unspecified)	< 70
CN1CCN(c2cc(-c3ccc(F)cc3)nc(-c3ccncc3)n2)CC1	< 70
CN(C)c1nc(N)nc(CN(Cc2nc(N)nc(N(C)C)n2)C23CC4CC(CC(C4)C2)C3)n1	< 70
Cc1cc(NC(=O)c2cccc(S(=O)(=O)N3c4ccccc4CC3C)c2)no1 (stereo unspecified)	< 70
COc1ccc(-c2c(C)nn3c(NCc4ccccn4)cc(C)nc23)cc1OC	< 70
O=C(NCCCN1CCC(N2CCCCC2)CC1)C1=Cc2cc(Br)ccc2OC1	< 70
Cc1ccc(C2CC(C(F)(F)F)n3nc(C(=O)N4CCN(C(c5ccccc5)c5ccccc5)CC4)cc3N2)cc1 (stereo unspecified)	< 70
c1ccc(C2=Nc3ccccc3N=C(c3ccccc3)c3ccccc32)cc1	< 70
Cc1ccc(N2C3c4ccccc4N(S(=O)(=O)c4ccc(C)cc4)C2c2ccccc2N3S(=O)(=O)c2ccc(C)cc2)cc1	< 70
CCOC(=O)c1ccc(N2CCN(C(C)c3nc(C(C)C)no3)CC2)nc1 (stereo unspecified)	< 70
N#Cc1ccc(NC(=O)Nc2ccc(C#N)cc2)cc1	< 70
CCOC(=O)c1c(NC(=O)c2ccccc2)sc2c(O)c(CN(CC)CC)ccc12	< 70
OC(CNC1CCCCC1)Cn1c2ccccc2c2ccccc21 (stereo unspecified)	< 70
COc1ccc(CN2CCOc3ccc(C(C)(O)CN(C)C)cc3C2)cc1C (stereo unspecified)	< 70
O=C(Nc1ccc(I)cc1)C1CCN(C(=O)c2ccncc2)CC1	< 70
Nc1nnc(SCc2c(F)cccc2Cl)[nH]1	< 70

SMILES	growth inhibition at single dose [%]
CNc1snc(C)c1C(=O)N(C)Cc1ccc(C(C)C)cc1	< 70
COc1ccc(OC)c(C2C3=C(CC(C)(C)CC3=O)N(c3ccc(Cl)c(Cl)c3)C3=C2C(=O)CC(C)(C)C3)c1	< 70
Cc1nc(C(=O)N2CCc3c(c(C(=O)NC4CCCC4)nn3CC(C)C)C2)cs1	< 70
Cc1cc(C(=O)Nc2ccc(Cl)cc2)c(C)n1-c1ccccc1	< 70
CN1CCN(c2ccc(Cl)cc2NC(=O)c2cccc(Oc3ccccc3)c2)CC1	< 70
CCC(=O)c1cn(S(=O)(=O)c2ccc(C)cc2)c2ccccc12	< 70
COc1ccc2cc(CNc3ncnc4n[nH]cc34)ccc2c1	< 70
CCOc1ccccc1NC(C)C(=O)Nc1cc(C(F)(F)F)ccc1N1CCOCC1 (stereo unspecified)	< 70
O=C(Nc1cccc(-c2nc3ccccc3[nH]2)c1)c1cccc(NC(=O)c2ccco2)c1	< 70
CCN(CC)CCCNc1ccnc2cc3ccccc3cc12	< 70
Cc1nc(C(=O)N2CCc3c(c(C(=O)NCc4ccccn4)nn3CCc3ccccc3)C2)cs1	< 70
C=c1ccccc1=C1NN=C(Nc2ccc(F)c(F)c2F)O1	< 70
COc1cccc(/C=C/c2n[nH]c(=O)c(C#N)c2C)c1	< 70
Nc1ncnc2[nH]nc(Cc3cccc4ccccc34)c12	< 70
CCCc1c(C)nc2ccccc2c1O	< 70
CCCc1ccc(-c2nc(-c3cccs3)no2)cc1	< 70
Cc1c(C)c(C)c(S(=O)(=O)Nc2ccc3c[nH]nc3c2)c(C)c1C	< 70
CN(C)c1ccc(N2C(N)=NC(N)=NC2(C)C)cc1	< 70
COc1ccc(Nc2cc(C)nc(NCc3ccccc3)n2)cc1	< 70
O=c1nc(C=Cc2ccc(Br)cc2)oc2ccccc12	< 70
O=C(Nc1ccc(F)c(Cl)c1)Nc1ccc(Cl)c(Cl)c1	< 70
CC1CCN(Cc2ccc(NC(=O)c3cc4ccc5cccnc5c4[nH]3)cc2)CC1	< 70
CNCCCNc1ccnc2cc(Cl)ccc12	< 70
